Measurements: ChEMBL document CHEMBL1201862, “PubChem BioAssay data set” (2004)
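These data come from cells grown in 96-well plates and exposed to compound for 48 hours at five concentrations. At the GI50, growth is halved.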 Calls of active or inactive are those of the source. No stated cut-off is given here; in the data, active = GI50 up to about 1.1 µM and inactive = higher.

Assays:
Test in all cases: NCI anticancer screen, dose series, 48 h
HCT-116 = tested on: HCT-116
K562 = tested on: K562
KM12 = tested on: KM12
M14 = tested on: M14
MCF7 = tested on: MCF7
MDA-N = tested on: MDA-N
MOLT-4 = tested on: MOLT-4
NCI-H226 = tested on: NCI-H226
NCI-H522 = tested on: NCI-H522
RXF 393 = tested on: RXF 393
SF-295 = tested on: SF-295
UACC-62 = tested on: UACC-62
EKVX = tested on: EKVX
HOP-62 = tested on: HOP-62
OVCAR-8 = tested on: OVCAR-8
SK-MEL-5 = tested on: SK-MEL-5
U-251 = tested on: U-251
BT-549 = tested on: BT-549

CCOC(=O)/C=C/CC(C)(C)COC(C)=O
GI50 (HCT-116): 6.1 µM (inactive) | GI50 (K562): 9.91 µM (inactive) | GI50 (KM12): 0.811 µM (active) | GI50 (M14): 6.75 µM (inactive) | GI50 (MCF7): > 10 µM (inactive) | GI50 (MDA-N): 7.48 µM (inactive) | GI50 (MOLT-4): > 10 µM (inactive) | GI50 (NCI-H226): 2.45 µM (inactive) | GI50 (NCI-H522): > 10 µM (inactive) | GI50 (RXF 393): 5.32 µM (inactive) | GI50 (SF-295): > 10 µM (inactive) | GI50 (UACC-62): > 10 µM (inactive)

O=C(CCCN1CCC2(CC1)OC(=O)N(c1ccccc1)C2=O)c1ccccc1
GI50 (EKVX): > 100 µM (inactive) | GI50 (HCT-116): > 100 µM (inactive) | GI50 (HOP-62): > 100 µM (inactive) | GI50 (K562): > 100 µM (inactive) | GI50 (KM12): > 100 µM (inactive) | GI50 (M14): > 100 µM (inactive) | GI50 (MCF7): > 100 µM (inactive) | GI50 (MDA-N): > 100 µM (inactive) | GI50 (MOLT-4): > 100 µM (inactive) | GI50 (NCI-H226): > 100 µM (inactive) | GI50 (NCI-H522): > 100 µM (inactive) | GI50 (OVCAR-8): > 100 µM (inactive) | GI50 (RXF 393): > 100 µM (inactive) | GI50 (SF-295): > 100 µM (inactive) | GI50 (SK-MEL-5): > 100 µM (inactive) | GI50 (U-251): > 100 µM (inactive) | GI50 (UACC-62): > 100 µM (inactive)

CC1SC(=O)SC1C (stereo not given)
GI50 (EKVX): > 100 µM (inactive) | GI50 (HCT-116): > 100 µM (inactive) | GI50 (HOP-62): > 100 µM (inactive) | GI50 (K562): > 100 µM (inactive) | GI50 (KM12): > 100 µM (inactive) | GI50 (M14): > 100 µM (inactive) | GI50 (MCF7): > 100 µM (inactive) | GI50 (MDA-N): > 100 µM (inactive) | GI50 (MOLT-4): > 100 µM (inactive) | GI50 (NCI-H522): > 100 µM (inactive) | GI50 (OVCAR-8): > 100 µM (inactive) | GI50 (SF-295): > 100 µM (inactive) | GI50 (SK-MEL-5): > 100 µM (inactive) | GI50 (U-251): > 100 µM (inactive)

COc1ccc(OC)c2c(C(C)=O)cccc12
GI50 (EKVX): > 100 µM (inactive) | GI50 (HCT-116): > 100 µM (inactive) | GI50 (HOP-62): > 100 µM (inactive) | GI50 (K562): > 100 µM (inactive) | GI50 (KM12): > 100 µM (inactive) | GI50 (MCF7): > 100 µM (inactive) | GI50 (MOLT-4): 81.8 µM (inactive) | GI50 (NCI-H226): 46.2 µM (inactive) | GI50 (NCI-H522): > 100 µM (inactive) | GI50 (OVCAR-8): > 100 µM (inactive) | GI50 (RXF 393): > 100 µM (inactive) | GI50 (SF-295): > 100 µM (inactive) | GI50 (SK-MEL-5): > 100 µM (inactive) | GI50 (U-251): > 100 µM (inactive) | GI50 (UACC-62): > 100 µM (inactive)

COC(=O)[C@H]1C=NN[C@@H]1C(=O)N1[C@H]2CC3CC[C@@]2(CS1(=O)=O)C3(C)C
GI50 (BT-549): > 100 µM (inactive) | GI50 (EKVX): > 100 µM (inactive) | GI50 (HCT-116): > 100 µM (inactive) | GI50 (HOP-62): > 100 µM (inactive) | GI50 (K562): > 100 µM (inactive) | GI50 (KM12): > 100 µM (inactive) | GI50 (M14): > 100 µM (inactive) | GI50 (MCF7): > 100 µM (inactive) | GI50 (MOLT-4): > 100 µM (inactive) | GI50 (NCI-H226): > 100 µM (inactive) | GI50 (NCI-H522): > 100 µM (inactive) | GI50 (OVCAR-8): > 100 µM (inactive) | GI50 (SF-295): > 100 µM (inactive) | GI50 (SK-MEL-5): > 100 µM (inactive) | GI50 (U-251): > 100 µM (inactive)

Cc1ccc(Nc2nc(NNC(=O)Cc3ccccc3)nc(NNC(=O)c3ccncc3)n2)cc1
GI50 (BT-549): > 10 µM (inactive) | GI50 (EKVX): > 10 µM (inactive) | GI50 (HOP-62): > 10 µM (inactive) | GI50 (K562): > 10 µM (inactive) | GI50 (KM12): > 10 µM (inactive) | GI50 (M14): > 10 µM (inactive) | GI50 (MCF7): > 10 µM (inactive) | GI50 (MDA-N): > 10 µM (inactive) | GI50 (MOLT-4): > 10 µM (inactive) | GI50 (OVCAR-8): > 10 µM (inactive) | GI50 (SK-MEL-5): > 10 µM (inactive) | GI50 (U-251): > 10 µM (inactive) | GI50 (UACC-62): 9.82 µM (inactive)

O=C1CCCCc2cccc(O)c21
GI50 (BT-549): > 100 µM (inactive) | GI50 (EKVX): > 100 µM (inactive) | GI50 (HCT-116): > 100 µM (inactive) | GI50 (HOP-62): > 100 µM (inactive) | GI50 (K562): > 100 µM (inactive) | GI50 (KM12): > 100 µM (inactive) | GI50 (M14): > 100 µM (inactive) | GI50 (MCF7): > 100 µM (inactive) | GI50 (MOLT-4): > 100 µM (inactive) | GI50 (NCI-H226): > 100 µM (inactive) | GI50 (NCI-H522): > 100 µM (inactive) | GI50 (OVCAR-8): > 100 µM (inactive) | GI50 (RXF 393): > 100 µM (inactive) | GI50 (SF-295): > 100 µM (inactive) | GI50 (SK-MEL-5): > 100 µM (inactive) | GI50 (U-251): > 100 µM (inactive) | GI50 (UACC-62): > 100 µM (inactive)

COc1cc2c(c3nc4ccccc4nc13)-c1ccc(SC)c(=O)cc1[C@@H](NC(C)=O)CC2
GI50 (EKVX): 0.0525 µM (active) | GI50 (HCT-116): 0.0372 µM (active) | GI50 (HOP-62): 0.405 µM (active) | GI50 (K562): 0.0328 µM (active) | GI50 (KM12): 0.0193 µM (active) | GI50 (M14): 0.0617 µM (active) | GI50 (MCF7): 0.0485 µM (active) | GI50 (MDA-N): 0.0188 µM (active) | GI50 (MOLT-4): 0.0438 µM (active) | GI50 (NCI-H226): 0.135 µM (active) | GI50 (NCI-H522): 0.0327 µM (active) | GI50 (OVCAR-8): 0.0815 µM (active) | GI50 (RXF 393): > 100 µM (inactive) | GI50 (SF-295): 0.216 µM (active) | GI50 (SK-MEL-5): 0.0347 µM (active) | GI50 (U-251): 0.0345 µM (active) | GI50 (UACC-62): 0.0373 µM (active)

Oc1ccc(/C=N/N=c2\[nH][nH]/c(=N\N=C\c3ccc(O)cc3O)c3ccccc23)c(O)c1
GI50 (BT-549): 0.21 µM (active) | GI50 (EKVX): 0.211 µM (active) | GI50 (HCT-116): 0.313 µM (active) | GI50 (HOP-62): 0.304 µM (active) | GI50 (K562): 0.261 µM (active) | GI50 (KM12): 0.275 µM (active) | GI50 (M14): 0.318 µM (active) | GI50 (MCF7): 0.274 µM (active) | GI50 (MDA-N): 0.228 µM (active) | GI50 (MOLT-4): 0.0865 µM (active) | GI50 (OVCAR-8): 0.25 µM (active) | GI50 (SF-295): 0.295 µM (active) | GI50 (SK-MEL-5): 0.236 µM (active) | GI50 (U-251): 0.2 µM (active) | GI50 (UACC-62): 0.234 µM (active)
